Laboratory results from patent US9102591B2, “Benzamides” (H. Lundbeck A/S, priority 2012, dated 2015).

Molecular target: P2X7 receptor (Homo sapiens (Human), UniProt Q99572)
Assay: P2X7 FLIPR assay (BzATP-stimulated calcium fluorescence, antagonist IC50)
Type: cell-based
Experimental: This example illustrates representative assays for use in evaluating the test compounds for antagonist activity. Compounds of the present invention were tested in vitro for their ability to act as antagonists to the P2X7receptor. […]
Cells were plated to cell density of approximately 15,000 cells/well in 384-well assay plates (50 μl/well) with 1.5% low serum media (DMEM, 1.5% FBS, 1% L-glut (2 mM), 10 mM HUES, 1% P/S). Cells were plated 24 hours prior to assay. Cells expressing human, rat or mouse P2X7 receptor were assayed in the following manner.
Fluo-4 NW dye mix (Molecular Probes, Inc., Eugene, Oreg., USA) was prepared in buffer (see manufacturer's instructions). Cell plates were removed from the 37° C. incubator, the media discarded and then 30 μL of dye was added to each well. Plates were placed in the 37° C., non-CO2 incubator for 30 minutes and then room temperature for 30 minutes.
Compound mixtures (A) were added to assay plates containing cells and placed at room temperature for 30 minutes, then BzATP (B) was added. Fluorescence was read using the Tetra FLIPR® (Molecular Devices, Inc., Sunnyvale, Calif., USA) and IC50 values were calculated by standard methods to determine antagonist activity.

Sequence of P2X7 receptor (Q99572 whole entry): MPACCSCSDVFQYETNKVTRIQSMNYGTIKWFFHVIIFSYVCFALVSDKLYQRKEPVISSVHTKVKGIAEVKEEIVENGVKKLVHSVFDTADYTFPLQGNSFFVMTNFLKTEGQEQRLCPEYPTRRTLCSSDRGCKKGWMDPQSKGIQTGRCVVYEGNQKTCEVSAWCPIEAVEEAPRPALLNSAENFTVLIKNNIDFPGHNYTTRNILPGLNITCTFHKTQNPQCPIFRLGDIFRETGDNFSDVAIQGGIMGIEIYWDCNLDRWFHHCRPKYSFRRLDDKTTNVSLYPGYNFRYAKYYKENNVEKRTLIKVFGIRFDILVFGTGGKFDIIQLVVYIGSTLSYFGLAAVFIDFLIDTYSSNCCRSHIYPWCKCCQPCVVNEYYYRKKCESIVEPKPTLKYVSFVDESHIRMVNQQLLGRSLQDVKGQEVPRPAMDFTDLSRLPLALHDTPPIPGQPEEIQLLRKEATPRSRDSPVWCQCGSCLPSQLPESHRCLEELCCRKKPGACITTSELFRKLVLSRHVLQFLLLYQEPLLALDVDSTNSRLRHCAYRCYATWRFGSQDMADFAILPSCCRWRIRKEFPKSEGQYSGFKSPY

Compound	IC50 [nM]
Cc1ncc(C(CNC(=O)c2c(Cl)cccc2Cl)CC2CC2)cn1 (single isomer, unassigned; (-)) [(−)2,6-dichloro-N-[3-cyclopropyl-2-(2-methylpyrimidin-5-yl)p] [(−)2,6-dichloro-N-[3-cyclopropyl-2-(2-methylpyrimidin-5-yl)propyl]benzamide]	9.9
Cc1ncc(C(CNC(=O)c2cccc(Cl)c2Cl)C2CCOCC2)cn1 (single isomer, unassigned; (-)) [(−)2,3-dichloro-N-[2-(2-methylpyrimidin-5-yl)-2-tetrahydropy] [(−)2,3-dichloro-N-[2-(2-methylpyrimidin-5-yl)-2-tetrahydropyran-4-yl-ethyl]benzamide]	58
O=C(NCC(CC1CC1)c1ccc(C(F)(F)F)nc1)c1cccc(F)c1Cl (stereo not drawn) [2(−)-chloro-N-[3-cyclopropyl-2-[6-(trifluoromethyl)-3-pyridy] [2(−)-chloro-N-[3-cyclopropyl-2-[6-(trifluoromethyl)-3-pyridyl]propyl]-3-fluoro-benzamide]	2.9
COc1cccc(C(=O)NCC(CC2CC2)c2ccc(C(F)(F)F)nc2)c1Cl (single isomer, unassigned; (-)) [(−)2-chloro-N-[3-cyclopropyl-2-[6-(trifluoromethyl)-3-pyridy] [(−)2-chloro-N-[3-cyclopropyl-2-[6-(trifluoromethyl)-3-pyridyl]propyl]-3-methoxy-benzamide]	4.2
COc1cccc(C(=O)NCC(CC2CC2)c2cnc(C(F)(F)F)nc2)c1Cl (single isomer, unassigned; (-)) [(−)2-chloro-N-[3-cyclopropyl-2-[2-(trifluoromethyl)pyrimidin] [(−)2-chloro-N-[3-cyclopropyl-2-[2-(trifluoromethyl)pyrimidin-5-yl]propyl]-3-methoxy-benzamide]	3.4
O=C(NCC(c1ccc(F)cc1)c1ccc(C(F)(F)F)nc1)c1ccccc1Cl (single isomer, unassigned; (-)) [(−)2-chloro-N-[2-(4-fluorophenyl)-2-[6-(trifluoromethyl)-3-p] [(−)2-chloro-N-[2-(4-fluorophenyl)-2-[6-(trifluoromethyl)-3-pyridyl]ethyl]benzamide]	3.1
O=C(NCC1(c2ccc(Cl)cc2)CCOCC1)c1cc(F)cc(F)c1F [N-[4-(4-Chloro-phenyl)-tetrahydro-pyran-4-ylmethyl]-2,3,5-trifluoro-benzamide]	3600
COc1cccc(C(=O)NCC2(c3ccc(C(F)(F)F)nc3)CCC(F)(F)CC2)c1C [N-((4,4-difluoro-1-(6-(trifluoromethyl)pyridin-3-yl)cyclohexyl)methyl)-3-methoxy-2-methylbenzamide]	1.6
Cc1ncc(C(CNC(=O)c2cccc(Cl)c2Cl)CC2(C(F)(F)F)CC2)cn1 (single isomer, unassigned; (+)) [(+)2,3-dichloro-N-[2-(2-methylpyrimidin-5-yl)-3-[1-(trifluor] [(+)2,3-dichloro-N-[2-(2-methylpyrimidin-5-yl)-3-[1-(trifluoromethyl)cyclopropyl]propyl]benzamide]	1.5
O=C(NCC(c1ccccc1)c1ccc(C(F)(F)F)nc1)c1ccc(Cl)cc1Cl (stereo not drawn) [2,4-dichloro-N-(2-phenyl-2-(6-(trifluoromethyl)pyridin-3-yl)ethyl)benzamide]	25
Cc1ncc(C2(C(C)NC(=O)c3ccccc3Cl)CCC(F)(F)CC2)cn1 (stereo not drawn) [2-chloro-N-[1-[4,4-difluoro-1-(2-methylpyrimidin-5-yl)cyclohexyl]ethyl]benzamide]	1600
O=C(NCC(CC1CC1)c1ccc(C(F)(F)F)nc1)c1cccc(Cl)c1Cl (stereo not drawn) [2,3-dichloro-N-[3-cyclopropyl-2-[6-(trifluoromethyl)-3-pyrid] [2,3-dichloro-N-[3-cyclopropyl-2-[6-(trifluoromethyl)-3-pyridyl]propyl]benzamide]	0.55
Cc1ccc(Cl)c(C(=O)NCC2(c3ccc(Cl)cc3)CCOCC2)c1 [2-Chloro-N-[4-(4-chloro-phenyl)-tetrahydro-pyran-4-ylmethyl]-5-methyl-benzamide]	62
CS(=O)(=O)c1ccc(Cl)c(C(=O)NCC(CC2CC2)c2ccc(C(F)(F)F)nc2)c1 (single isomer, unassigned; (-)) [(−)2-chloro-N-[3-cyclopropyl-2-[6-(trifluoromethyl)-3-pyridy] [(−)2-chloro-N-[3-cyclopropyl-2-[6-(trifluoromethyl)-3-pyridyl]propyl]-5-methylsulfonyl-benzamide]	8.1
O=C(NCC(c1ccc(F)cc1)c1ccc(C(F)(F)F)nc1)c1cccc(Cl)c1Cl (single isomer, unassigned; (+)) [(+)2,3-dichloro-N-[2-(4-fluorophenyl)-2-[6-(trifluoromethyl)] [(+)2,3-dichloro-N-[2-(4-fluorophenyl)-2-[6-(trifluoromethyl)-3-pyridyl]ethyl]benzamide]	12
O=C(NCC(c1cnc(C(F)(F)F)nc1)C1CCC(F)(F)CC1)c1ccccc1Cl (single isomer, unassigned; (+)) [(+)2-chloro-N-[2-(4,4-difluorocyclohexyl)-2-[2-(trifluoromet] [(+)2-chloro-N-[2-(4,4-difluorocyclohexyl)-2-[2-(trifluoromethyl)pyrimidin-5-yl]ethyl]benzamide]	32
O=C(NCC(CC1CC1)c1ccc(C(F)F)nc1)c1cccc(Cl)c1Cl (single isomer, unassigned; (+)) [(+)2,3-dichloro-N-[3-cyclopropyl-2-[6-(difluoromethyl)-3-pyridyl]propyl]benzamide]	24
Cc1ncc(C(CNC(=O)c2ccccc2Cl)c2ccncc2)cn1 (stereo not drawn) [2-chloro-N-[2-(2-methylpyrimidin-5-yl)-2-(4-pyridyl)ethyl]benzamide]	1300
O=C(NCC(CC1CC1)c1ccc(C(F)(F)F)nc1)c1c(F)cccc1Cl (single isomer, unassigned; (+)) [(+)2-chloro-N-[3-cyclopropyl-2-[6-(trifluoromethyl)-3-pyridy] [(+)2-chloro-N-[3-cyclopropyl-2-[6-(trifluoromethyl)-3-pyridyl]propyl]-6-fluoro-benzamide]	50
O=C(NCC1(c2ccc(F)nc2)CCC(F)(F)CC1)c1cccc(Cl)c1F [3-chloro-N-((4,4-difluoro-1-(6-fluoropyridin-3-yl)cyclohexyl)methyl)-2-fluorobenzamide]	11
O=C(NCC(c1ccc(F)cc1)c1ccc(C(F)(F)F)nc1)c1c(F)cccc1Cl (single isomer, unassigned; (+)) [(+)2-chloro-6-fluoro-N-[2-(4-fluorophenyl)-2-[6-(trifluorome] [(+)2-chloro-6-fluoro-N-[2-(4-fluorophenyl)-2-[6-(trifluoromethyl)-3-pyridyl]ethyl]benzamide]	15
CS(=O)(=O)c1ccc(C(=O)NCC2(c3ccc(C(F)(F)F)nc3)CCC(F)(F)CC2)c(Cl)c1 [2-chloro-N-((4,4-difluoro-1-(6-(trifluoromethyl)pyridin-3-yl)cyclohexyl)methyl)-4-(methylsulfonyl)benzamide]	1800
O=C(NCC(CC1CC1)c1cnc(C(F)(F)F)nc1)c1c(Cl)cccc1Cl (stereo not drawn) [2,6-dichloro-N-(3-cyclopropyl-2-(2-(trifluoromethyl)pyrimidi] [2,6-dichloro-N-(3-cyclopropyl-2-(2-(trifluoromethyl)pyrimidin-5-yl)propyl)benzamide]	5.1
O=C(NCC(CC1CC1)c1cnc(C(F)(F)F)nc1)c1cccc(Cl)c1Cl (single isomer, unassigned; (-)) [(−)2,3-dichloro-N-[3-cyclopropyl-2-[2-(trifluoromethyl)pyrim] [(−)2,3-dichloro-N-[3-cyclopropyl-2-[2-(trifluoromethyl)pyrimidin-5-yl]propyl]benzamide]	0.86
O=C(NCC(CC1(C(F)(F)F)CC1)c1ccc(C(F)(F)F)nc1)c1ccccc1F (stereo not drawn) [2-fluoro-N-[3-[1-(trifluoromethyl)cyclopropyl]-2-[6-(trifluoromethyl)-3-pyridyl]propyl]benzamide]	430
COc1cccc(C(=O)NCC(CC2CC2)c2ccc(C(F)(F)F)nc2)c1Cl (single isomer, unassigned; (+)) [(+)2-chloro-N-[3-cyclopropyl-2-[6-(trifluoromethyl)-3-pyridy] [(+)2-chloro-N-[3-cyclopropyl-2-[6-(trifluoromethyl)-3-pyridyl]propyl]-3-methoxy-benzamide]	12
O=C(NCC(CC1CC1)c1ccc(C(F)(F)F)nc1)c1cccc(Cl)c1Cl (single isomer, unassigned; (+)) [(+)2,3-dichloro-N-[3-cyclopropyl-2-[6-(trifluoromethyl)-3-py] [(+)2,3-dichloro-N-[3-cyclopropyl-2-[6-(trifluoromethyl)-3-pyridyl]propyl]benzamide]	2.6
O=C(NCC(c1ccc(C(F)(F)F)nc1)C1CC1)c1cccc(Cl)c1Cl (stereo not drawn) [2,3-dichloro-N-(2-cyclopropyl-2-(6-(trifluoromethyl)pyridin-3-yl)ethyl)benzamide]	120
O=C(NCC(CC1(C(F)(F)F)CC1)c1cnc(C(F)(F)F)nc1)c1cccc(Cl)c1Cl (single isomer, unassigned; (-)) [(−)2,3-dichloro-N-[3-[1-(trifluoromethyl)cyclopropyl]-2-[2-(] [(−)2,3-dichloro-N-[3-[1-(trifluoromethyl)cyclopropyl]-2-[2-(trifluoromethyl)pyrimidin-5-yl]propyl]benzamide]	21
O=C(NCC(c1ccncc1)c1ccc(C(F)(F)F)nc1)c1ccccc1Cl (stereo not drawn) [2-chloro-N-[2-(4-pyridyl)-2-[6-(trifluoromethyl)-3-pyridyl]ethyl]benzamide]	11
